Source: US20260013504A1, “HERBICIDAL MIXTURE, HERBICIDAL COMPOSITION, METHOD, USE, AND KITS FOR CONTROLLING UNDESIRABLE VEGETATION” (ADAMA AGAN LTD., priority 2022, published 2026)

Assays:
Assay type in all cases: in vivo
Aegilops tauschii = experiment: Pot experiment, soil treatment, control of Aegilops tauschii (fresh weight, Colby); details: mixtures: both AIs at these rates, after 35 days
Source text: (§1) Referring to an article of Colby, S. R. i.e., Calculation of the synergistic and antagonistic response of herbicide combinations.
E0 is the theoretical fresh weight survival rate for the mixture of pyroxasulfone and the second herbicide selected from the group consisting of fluorochloridone, aclonifen, diflufenican and terbutryn;
X is the measured fresh weight survival rate for pyroxasulfone used alone at the same dosage as that in the mixture;
Y is the measured fresh weight survival rate for the second herbicide selected from the group consisting of fluorochloridone, aclonifen, diflufenican and terbutryn used alone at the same dosage as that in the mixture;
E is the measured fresh weight survival rate for the mixture of pyroxasulfone and the second herbicide selected from the group consisting of fluorochloridone, aclonifen, diflufenican and terbutryn.
(§2) E0-E value is calculated to evaluate the combined effect of pyroxasulfone and the second herbicide selected from the group consisting of fluorochloridone, aclonifen, diflufenican and terbutryn on the selected weeds.
(§3) In this Example, the herbicidal activity of treatments by a mixture of pyroxasulfone and the second herbicide selected from the group consisting of fluorochloridone, aclonifen, diflufenican and terbutryn for controlling Aegilops tauschii was investigated by a pot experiment. This Example was carried out in accordance with “NY/T 1155.4-2006 Guidelines for Indoor Bioassay Tests of Pesticides, Herbicides Part 4: Activity Determination Tests, Stem and Leaf Spray Method”. • Source of the agrochemicals tested were: • Pyroxasulfone: pyroxasulfone (850g/Kg, WG) from Adama Agan LTD. • Fluorochloridone: fluorochloridone (250 g/L, EC) from Adama Agan LTD. • Aclonifen: aclonifen (600 g/L, SC) from Adama Agan LTD. • Diflufenican: diflufenican (50g/Kg, WP) from Bayer. • Terbutryn: terbutryn (50g/Kg, SC) from Zhejiang Zhongshan Chemical Industry Group Co., Ltd. • Cultivation of test materials: The test soil was formed by mixing the 20 cm layer loam on the ground surface and the culture medium in a ratio of 3:1 as cultivation soil. Weeds were cultivated in an artificial climate chamber. The daytime and nighttime temperatures were set at 22° C. and 19° C., respectively, and the illumination was set at daytime: dark time 12h: 12h.
(§4) A certain amount of Aegilops tauschii seeds were sown in a plastic pot with a diameter of 9 cm, covering with 1-2 mm soil, and putting them in an enamel dish filled with water. The bottom infiltration method was used to water them, the agrochemicals tested in this Example were applied on the second day after sowing Aegilops tauschii seeds.
(§5) Spraying treatment: ASS-4 automatic control spraying system with a fan-shaped nozzle was used indoors to spray the agrochemicals, the running speed was adjusted based on nozzle pressure, flow rate, etc. to spray 50 mL of liquid of agrochemicals on the actual spray area of 1.1 m2 (equivalent to 30 liters per mu), arranging the plastic pots to be processed on the spraying table evenly, and spraying evenly. The spraying pressure was 0.35 MPa, and the flow rate of the fan-shaped nozzle was 800 mL/min, spraying in order from low dosage to high dosage. Each treatment was repeated 3 times. After spraying, the plastic pots were dried for one day, placed in an artificial climate chamber, and watered regularly to keep moist.
(§6) Weed investigation method and time: after applying the agrochemicals, the symptoms of weed damage (such as growth inhibition, chlorosis, deformity, etc.) were recorded in detail. After 35 days, the fresh weight of aerial part of the weeds in each treatment was weighed, and the measured fresh weight inhibition rate and the measured fresh weight survival rate for each treatment were calculated according to the following equations: […]

Lolium multiflorum Lamk = experiment: Pot experiment, soil treatment, control of Lolium multiflorum Lamk (fresh weight, Colby); details: mixtures: both AIs at these rates, after 35 days
Protocol: as §1, §2, §3, §4, §5, §6
Example 2 was conducted in substantially the same way as Example 1, except that Lolium multiflorum Lamk was used instead of Aegilops tauschii.

Bromus japonicus = experiment: Pot experiment, soil treatment, control of Bromus japonicus (fresh weight, Colby); details: mixtures: both AIs at these rates, after 35 days
Protocol: as §1, §2, §3, §4, §5, §6
Example 3 was conducted in substantially the same way as Example 1, except that Bromus japonicus was used instead of Aegilops tauschii.

Galium aparine = experiment: Pot experiment, soil treatment, control of Galium aparine (fresh weight, Colby)
Protocol: as §1, §2, §3, §4, §5, §6
Example 4 was conducted substantially the same way as Example 1, except that Galium aparine was used instead of Aegilops tauschii.

Lithospermum arvense = experiment: Pot experiment, soil treatment, control of Lithospermum arvense (fresh weight, Colby)
Protocol: as §1, §2, §3, §4, §5, §6
Example 5 was conducted substantially the same way as Example 1, except that Lithospermum arvense was used instead of Aegilops tauschii.

Solanum nigrum = experiment: Pot experiment (glass greenhouse), soil treatment, control of Solanum nigrum (fresh weight, Colby)
Protocol: as §1, §2, §3, §4, §5, §6
Example 6 was substantially conducted in the same as Example 1, except that (1) Solanum nigrum was used instead of Aegilops tauschii, (2) in “Cultivation of test materials” part, Solanum nigrum was cultivated in a glass greenhouse instead of an artificial climate chamber at a temperature of 25 to 33° C. with a natural illumination, and (3) in “Spraying treatment” part, after spraying and drying, the plastic pots were placed in a glass greenhouse instead of an artificial climate chamber.

[1] = g ai/ha: pyroxasulfone 11.25, fluorochloridone 31.25, aclonifen 150, diflufenican 14.0625, terbutryn 140.625
[2] = g ai/ha: pyroxasulfone 22.5, fluorochloridone 62.5, aclonifen 300, diflufenican 28.125, terbutryn 281.25
[3] = g ai/ha: pyroxasulfone 45, fluorochloridone 125, aclonifen 600, diflufenican 56.25, terbutryn 562.5
[4] = g ai/ha: pyroxasulfone 90, fluorochloridone 250, aclonifen 1200, diflufenican 112.5, terbutryn 1125
[5] = g ai/ha: pyroxasulfone 180, fluorochloridone 500, aclonifen 2400, diflufenican 225, terbutryn 2250
[6] = g ai/ha: pyroxasulfone 360, fluorochloridone 1000, aclonifen 4800, diflufenican 450, terbutryn 4500

Compound: CCNc1nc(NC(C)(C)C)nc(SC)n1 [terbutryn, N-(1,1-dimethylethyl)-N′-ethyl-6-(methylthio)-1,3,5-triazine-2,4-diamine]
- Measured fresh weight inhibition rate (%) (Aegilops tauschii; [1]): 8.5%
- Measured fresh weight survival rate (%) - E (Aegilops tauschii; [1]): 91.5%
- Measured fresh weight inhibition rate (%) (Aegilops tauschii; [2]): 12.8%
- Measured fresh weight survival rate (%) - E (Aegilops tauschii; [2]): 87.2%
- Measured fresh weight inhibition rate (%) (Aegilops tauschii; [3]): 46.3%
- Measured fresh weight survival rate (%) - E (Aegilops tauschii; [3]): 53.7%
- Measured fresh weight inhibition rate (%) (Aegilops tauschii; [4]): 97.6%
- Measured fresh weight survival rate (%) - E (Aegilops tauschii; [4]): 2.4%
- Measured fresh weight inhibition rate (%) (Aegilops tauschii; [5]): 96.3%
- Measured fresh weight survival rate (%) - E (Aegilops tauschii; [5]): 3.7%
- Measured fresh weight inhibition rate (%) (Aegilops tauschii; [6]): 100.0%
- Measured fresh weight survival rate (%) - E (Aegilops tauschii; [6]): 0.0%
- Measured fresh weight inhibition rate (%) (Lolium multiflorum Lamk; [1]): 94.3%
- Measured fresh weight survival rate (%) - E (Lolium multiflorum Lamk; [1]): 5.7%
- Measured fresh weight inhibition rate (%) (Lolium multiflorum Lamk; [2]): 94.8%
- Measured fresh weight survival rate (%) - E (Lolium multiflorum Lamk; [2]): 5.2%
- Measured fresh weight inhibition rate (%) (Lolium multiflorum Lamk; [3]): 100.0%
- Measured fresh weight survival rate (%) - E (Lolium multiflorum Lamk; [3]): 0.0%
- Measured fresh weight inhibition rate (%) (Lolium multiflorum Lamk; [4]): 100.0%
- Measured fresh weight survival rate (%) - E (Lolium multiflorum Lamk; [4]): 0.0%
- Measured fresh weight inhibition rate (%) (Lolium multiflorum Lamk; [5]): 100.0%
- Measured fresh weight survival rate (%) - E (Lolium multiflorum Lamk; [5]): 0.0%
- Measured fresh weight inhibition rate (%) (Lolium multiflorum Lamk; [6]): 100.0%
- Measured fresh weight survival rate (%) - E (Lolium multiflorum Lamk; [6]): 0.0%
- Measured fresh weight inhibition rate (%) (Bromus japonicus; [1]): 100.0%
- Measured fresh weight survival rate (%) - E (Bromus japonicus; [1]): 0.0%
- Measured fresh weight inhibition rate (%) (Bromus japonicus; [2]): 100.0%
- Measured fresh weight survival rate (%) - E (Bromus japonicus; [2]): 0.0%
- Measured fresh weight inhibition rate (%) (Bromus japonicus; [3]): 100.0%
- Measured fresh weight survival rate (%) - E (Bromus japonicus; [3]): 0.0%
- Measured fresh weight inhibition rate (%) (Bromus japonicus; [4]): 100.0%
- Measured fresh weight survival rate (%) - E (Bromus japonicus; [4]): 0.0%
- Measured fresh weight inhibition rate (%) (Bromus japonicus; [5]): 100.0%
- Measured fresh weight survival rate (%) - E (Bromus japonicus; [5]): 0.0%
- Measured fresh weight survival rate (%) - E (Galium aparine; 140.625 g ai/ha): 80.8%
- Measured fresh weight survival rate (%) - E (Galium aparine; 281.25 g ai/ha): 53.4%
- Measured fresh weight survival rate (%) - E (Galium aparine; 562.5 g ai/ha): 9.6%
- Measured fresh weight survival rate (%) - E (Galium aparine; 1125 g ai/ha): 8.2%
- Measured fresh weight survival rate (%) - E (Galium aparine; 2250 g ai/ha): 0.0%
- inhibition at 140.625 g/ha (Galium aparine; Galium aparine, soil, 140.625 g ai/ha, read-out: Measured fresh weight inhibition rate (%)): 19.2%
- inhibition at 281.25 g/ha (Galium aparine; Galium aparine, soil, 281.25 g ai/ha, read-out: Measured fresh weight inhibition rate (%)): 46.6%
- inhibition at 562.5 g/ha (Galium aparine; Galium aparine, soil, 562.5 g ai/ha, read-out: Measured fresh weight inhibition rate (%)): 90.4%
- inhibition at 1125 g/ha (Galium aparine; Galium aparine, soil, 1125 g ai/ha, read-out: Measured fresh weight inhibition rate (%)): 91.8%
- inhibition at 2250 g/ha (Galium aparine; Galium aparine, soil, 2250 g ai/ha, read-out: Measured fresh weight inhibition rate (%)): 100%
- Measured fresh weight survival rate (%) - E (Lithospermum arvense; 140.625 g ai/ha): 1.4%
- Measured fresh weight survival rate (%) - E (Lithospermum arvense; 281.25 g ai/ha): 1.4%
- Measured fresh weight survival rate (%) - E (Lithospermum arvense; 562.5 g ai/ha): 0.0%
- Measured fresh weight survival rate (%) - E (Lithospermum arvense; 1125 g ai/ha): 0.0%
- Measured fresh weight survival rate (%) - E (Lithospermum arvense; 2250 g ai/ha): 0.0%
- inhibition at 140.625 g/ha (Lithospermum arvense; Buglossoides arvensis, soil, 140.625 g ai/ha, read-out: Measured fresh weight inhibition rate (%)): 98.6%
- inhibition at 281.25 g/ha (Lithospermum arvense; Buglossoides arvensis, soil, 281.25 g ai/ha, read-out: Measured fresh weight inhibition rate (%)): 98.6%
- inhibition at 562.5 g/ha (Lithospermum arvense; Buglossoides arvensis, soil, 562.5 g ai/ha, read-out: Measured fresh weight inhibition rate (%)): 100%
- inhibition at 1125 g/ha (Lithospermum arvense; Buglossoides arvensis, soil, 1125 g ai/ha, read-out: Measured fresh weight inhibition rate (%)): 100%
- inhibition at 2250 g/ha (Lithospermum arvense; Buglossoides arvensis, soil, 2250 g ai/ha, read-out: Measured fresh weight inhibition rate (%)): 100%
- Measured fresh weight survival rate (%) - E (Solanum nigrum; 140.625 g ai/ha): 57.6%
- Measured fresh weight survival rate (%) - E (Solanum nigrum; 281.25 g ai/ha): 36.1%
- Measured fresh weight survival rate (%) - E (Solanum nigrum; 562.5 g ai/ha): 0.4%
- Measured fresh weight survival rate (%) - E (Solanum nigrum; 1125 g ai/ha): 0.0%
- Measured fresh weight survival rate (%) - E (Solanum nigrum; 2250 g ai/ha): 0.0%
- inhibition at 140.625 g/ha (Solanum nigrum; Solanum nigrum, soil, 140.625 g ai/ha, read-out: Measured fresh weight inhibition rate (%)): 42.4%
- inhibition at 281.25 g/ha (Solanum nigrum; Solanum nigrum, soil, 281.25 g ai/ha, read-out: Measured fresh weight inhibition rate (%)): 63.9%
- inhibition at 562.5 g/ha (Solanum nigrum; Solanum nigrum, soil, 562.5 g ai/ha, read-out: Measured fresh weight inhibition rate (%)): 99.6%
- inhibition at 1125 g/ha (Solanum nigrum; Solanum nigrum, soil, 1125 g ai/ha, read-out: Measured fresh weight inhibition rate (%)): 100%
- inhibition at 2250 g/ha (Solanum nigrum; Solanum nigrum, soil, 2250 g ai/ha, read-out: Measured fresh weight inhibition rate (%)): 100%
